Data on 12 molecules can be found in patent publication US20210315869A1, “COMPOUNDS AND METHODS FOR CSK MODULATION AND INDICATIONS THEREFOR” (Plexxikon Inc., priority 2020, published 2021).

The IC50 is the midpoint of a concentration-inhibition curve. One may read the EC50 as the concentration needed to bring the measured effect to its halfway point.

Each structure is given as a SMILES string.

One experiment has as its target T1, LCK (Homo sapiens, UniProt P06239).
T1 construct: purchased ProQinase
As to the kind of experiment: Human LCK enzymatic assay (AlphaScreen, Poly (Glu4-Tyr) substrate). The format is biochemical. The settings on record: 100 uM ATP; read-out: LCK IC50 (uM) COFACTOR: 100 uM ATP. As to the method:
This assay measures the ability of LCK to phosphorylate a biotinylated peptide containing multiple tyrosine residues in vitro. The LCK enzyme was purchased from ProQinase. The biotinylated Poly (Glu4-Tyr) peptide substrate was purchased from Sigma-Aldrich. The LCK enzyme assay was performed using 1 ng LCK enzyme and 30 nM Poly (Glu4-Tyr) substrate in the presence of 25 mM Hepes pH 7.5, 10 mM MnCl2, 50 mM NaCl, 0.01% Tween-20, 0.5 mM DTT, 0.01% BSA, and 100 μM ATP. A 19 μL volume of the above reaction mixture was added to wells of 384-well AlphaPlate (PerkinElmer GA, USA) containing 1 μL of various concentrations of test compound or DMSO vehicle and incubated for 40 minutes at 25° C. 16 wells containing all the components of reaction mixture and 5% DMSO served as high control. 16 wells containing all the components except ATP of reaction mixture and 5% DMSO served as low control. The enzymatic reaction was stopped by the addition of 5 μL stop/detection mixture containing 25 mM Hepes pH 7.5 100 mM EDTA, and 10 μg/mL streptavidin-coated AlphaScreen donor beads (PerkinElmer GA, USA) and incubated for 20 minutes. A 5 μL mixture containing 25 mM Hepes pH 7.5, 100 mM EDTA, and 10 μg/mL anti-phosphotyrosine antibody PY20-coated AlphaScreen acceptor beads (PerkinElmer GA, USA) was added and the plate was incubated for 1 hour at room temperature. The streptavidin donor beads bind to the biotin moiety on the biotinylated Poly (Glu4-Tyr) substrate and the PY20 antibody-coated acceptor beads bind to tyrosine residues on the substrate that have been directly phosphorylated by LCK. Upon excitation of these beads with laser light at 680 nm, singlet oxygen was produced. This singlet oxygen was rapidly quenched, unless the AlphaScreen PY20 acceptor beads are in close proximity, in which case a proximity signal can be measured at 580 nm. In the presence of catalytic activity, there was a very strong proximity signal. Selective LCK inhibitors affect a decrease in this proximity signal through a decrease in phosphorylation of the Poly (Glu4-Tyr) substrate. The percentage of inhibition at individual concentrations relative to high and low controls was calculated. The data were analyzed by using nonlinear regression to generate IC50 values.
On the technique in general: In Alpha technology, singlet oxygen from a donor bead excites a nearby acceptor bead.

The target in another experiment is T2, CSK (Homo sapiens, UniProt P41240).
T2 construct: purchased Thermo Fisher
As to the kind of experiment: Human CSK enzymatic assay (AlphaScreen, Poly (Glu4-Tyr) substrate). The format is biochemical. The conditions noted are these: 100 uM ATP; read-out: CSK IC50 (μM) COFACTOR: 100 uM ATP. Here is the method: This assay measures the ability of CSK to phosphorylate a biotinylated peptide containing multiple tyrosine residues in vitro. The CSK enzyme was purchased from Thermo Fisher. The biotinylated Poly (Glu4-Tyr) peptide substrate was purchased from Sigma-Aldrich. The CSK enzyme assay was performed using 0.75 ng CSK enzyme and 30 nM Poly (Glu4-Tyr) substrate in the presence of 25 mM Hepes pH 7.5, 5 mM Mg Acetate, 0.1% NP-40, 1 mM DTT, 0.01% BSA, and 100 μM ATP. A 19 μL volume of the above reaction mixture was added to wells of 384-well AlphaPlate (PerkinElmer GA, USA) containing 1 μL of various concentrations of test compound or DMSO vehicle and incubated for 60 minutes at room temperature. 16 wells containing all the components of reaction mixture and 5% DMSO serve as high control. 16 wells containing all the components except ATP of reaction mixture and 5% DMSO served as low control. The enzymatic reaction was stopped by the addition of 5 μL stop/detection mixture containing 25 mM Hepes pH 7.5 100 mM EDTA, and 5 μg/mL streptavidin-coated AlphaScreen donor beads (PerkinElmer GA, USA) and incubated for 20 minutes. A 5 μL mixture containing 25 mM Hepes pH 7.5, 100 mM EDTA, and 5 μg/mL anti-phosphotyrosine antibody PY20-coated AlphaScreen acceptor beads (PerkinElmer GA, USA) was added and the plate was incubated for 1 hour at room temperature. The streptavidin donor beads bind to the biotin moiety on the biotinylated Poly (Glu4-Tyr) substrate and the PY20 antibody-coated acceptor beads bind to tyrosine residues on the substrate that have been directly phosphorylated by CSK. Upon excitation of these beads with laser light at 680 nm, singlet oxygen was produced. This singlet oxygen was rapidly quenched, unless the AlphaScreen PY20 acceptor beads are in close proximity, in which case a proximity signal can be measured at 580 nm. In the presence of catalytic activity, there was a very strong proximity signal. Selective CSK inhibitors affect a decrease in this proximity signal through a decrease in phosphorylation of the Poly (Glu4-Tyr) substrate. The percentage of inhibition at individual concentrations relative to high and low controls was calculated. The data were analyzed by using nonlinear regression to generate IC50 values. Human LCK enzymatic assay

The next experiment concerns Jurkat/NFAT-RE cells. As to the kind of experiment: NFAT reporter assay (luciferase) in Jurkat/NFAT-RE cells. The format is cell-based. The conditions noted are these: Homo sapiens, 0.02 μg/mL anti-CD3 antibody OKT3, 3 hours, read-out: Jurkat EC50 (uM) Cell Assay: Reporter Cell Variant: NFAT response element. From the text: To assess the ability of CSK inhibitors to activate LCK and stimulate signaling downstream of the T-cell receptor, an NFAT reporter assay was used for monitoring of LCK activation in cells through the activation of LCK-dependent signaling through a reporter assay. The Jurkat T-cell cell line was genetically engineered to express a luciferase reporter that is regulated by the NFAT-response element. (Clipstone, N. A., & Crabtree, G. R., Identification of calcineurin as a key signalling enzyme in T-lymphocyte activation, Nature, 357(6380), 695-697, 1992). Stimulation of the T-cell receptor with anti-CD3 antibody increases the expression of the luciferase reporter. To test the ability of CSK inhibitors to stimulate LCK and downstream T-cell signaling, the cells were stimulated with a suboptimal concentration of anti-CD3 ligand, to measure the ability of CSK inhibitors to increase luciferase expression.
This assay measures the signaling activity downstream of the T-cell receptor, specifically the ability of the NFAT transcription factor to be translocated to the nucleus and induce expression of a firefly luciferase gene. Jurkat/NFAT-RE cells stably expressing the NFAT reporter construct were purchased from BPS Bioscience. The assay was performed by plating 40,000 Jurkat/NFAT-RE cells in a 50 μL volume of serum-free growth media in a 96-well plate. Following an overnight incubation, the cells were treated with CSK inhibitors and 0.02 μg/mL anti-CD3 antibody OKT3 (BD Bioscience) for 3 hours at 37° C. High control wells were stimulated with DMSO and 5 μg/mL OKT3 to maximally stimulate the NFAT reporter, and low control wells were stimulated with DMSO and 0.02 μg/mL OKT3. Following the 3 hour incubation, the cells were assayed for viability using CellTiter-Fluor™ (Promega), and for luciferase expression using ONE-Glo™ (Promega). The ONE-Glo™ signal was normalized to the CellTiter-Fluor™ signal, and the percentage of NFAT activation relative to high and low controls was calculated. The data were analyzed by using nonlinear regression to generate EC50 values. Selective CSK inhibitors affect an increase in luciferase expression in the presence of low level stimulation of the T-cell receptor.
In general terms: Reporter assays use an easily measured gene product as a stand-in for the process of interest.

T1 sequence (P06239 whole entry): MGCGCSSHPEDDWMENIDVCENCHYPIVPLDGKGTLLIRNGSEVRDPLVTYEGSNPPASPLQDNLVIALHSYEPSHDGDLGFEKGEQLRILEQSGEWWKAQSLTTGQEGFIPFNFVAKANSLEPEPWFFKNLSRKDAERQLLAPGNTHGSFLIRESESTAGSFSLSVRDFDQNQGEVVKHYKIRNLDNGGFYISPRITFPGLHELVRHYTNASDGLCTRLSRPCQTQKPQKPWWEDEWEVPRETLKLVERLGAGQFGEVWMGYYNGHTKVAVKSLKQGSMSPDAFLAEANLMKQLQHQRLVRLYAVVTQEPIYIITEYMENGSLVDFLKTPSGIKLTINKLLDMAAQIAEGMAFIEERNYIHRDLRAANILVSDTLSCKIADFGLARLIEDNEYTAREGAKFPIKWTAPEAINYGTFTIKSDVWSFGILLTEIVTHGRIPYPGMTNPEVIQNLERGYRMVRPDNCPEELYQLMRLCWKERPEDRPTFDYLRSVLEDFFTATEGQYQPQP
T2 sequence (P41240 whole entry): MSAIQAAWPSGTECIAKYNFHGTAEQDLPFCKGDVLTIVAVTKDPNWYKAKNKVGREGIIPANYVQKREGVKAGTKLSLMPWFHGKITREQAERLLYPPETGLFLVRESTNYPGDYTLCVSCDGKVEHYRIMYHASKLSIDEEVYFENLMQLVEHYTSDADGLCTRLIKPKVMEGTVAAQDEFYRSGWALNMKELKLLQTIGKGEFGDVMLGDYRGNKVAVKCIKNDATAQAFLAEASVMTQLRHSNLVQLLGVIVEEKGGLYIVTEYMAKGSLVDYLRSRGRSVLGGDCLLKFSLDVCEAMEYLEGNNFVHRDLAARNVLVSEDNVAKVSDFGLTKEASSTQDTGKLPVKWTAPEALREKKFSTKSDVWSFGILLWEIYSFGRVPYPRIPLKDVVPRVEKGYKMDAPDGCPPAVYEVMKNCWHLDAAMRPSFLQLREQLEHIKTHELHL

On to `Nc1cc2c(cn1)cc(-c1c(F)ccc(NS(=O)(=O)c3cc4scnc4cc3F)c1F)c(=O)n2CC(F)(F)F` [P-0021, N-(3-(7-amino-2-oxo-1-(2,2,2-trifluoroethyl)-1,2-dihydro-1,6-naphthyridin-3-yl)-2,4-difluorophenyl)-5-fluorobenzo[d]thiazole-6-sulfonamide], for which the half-inhibitory concentration (IC50) on LCK fell in the range of 0.5 to 5 µM; on CSK it was 0.001 to 0.5 µM. Also, the 50% effective concentration (EC50) with Jurkat/NFAT-RE cells lay in the range of 0.001 to 0.5 µM.
For the molecule `Nc1cc2c(cn1)cc(-c1c(F)ccc(NS(=O)(=O)c3cc4scnc4cc3F)c1F)c(=O)n2C1CC1` [P-0008, N-(3-(7-amino-1-cyclopropyl-2-oxo-1,2-dihydro-1,6-naphthyridin-3-yl)-2,4-difluorophenyl)-5-fluorobenzo[d]thiazole-6-sulfonamide], the 50% inhibitory concentration (IC50) on LCK fell in the range of 5 to 100 µM; at CSK it was 0.001 to 0.5 µM. For the same molecule, the EC50 in the experiment with Jurkat/NFAT-RE cells lay within 0.001 to 0.5 µM.
As for `CC(F)(F)Cn1c(=O)c(-c2c(F)ccc(NS(=O)(=O)c3ccc4ncsc4c3F)c2F)cc2cnc(N)cc21` [P-0020, N-(3-(7-amino-1-(2,2-difluoropropyl)-2-oxo-1,2-dihydro-1,6-naphthyridin-3-yl)-2,4-difluorophenyl)-7-fluorobenzo[d]thiazole-6-sulfonamide], the 50% inhibitory concentration (IC50) is 0.5 to 5 µM at LCK and 0.001 to 0.5 µM on CSK. Besides, in the experiment on Jurkat/NFAT-RE cells, the EC50 lay within 0.001 to 0.5 µM.
Consider `Nc1cc2c(cn1)cc(-c1c(F)ccc(NS(=O)(=O)c3ccc4ncsc4c3F)c1F)c(=O)n2CC1CC1` [P-0001, N-(3-(7-amino-1-(cyclopropylmethyl)-2-oxo-1,2-dihydro-1,6-naphthyridin-3-yl)-2,4-difluorophenyl)-7-fluorobenzo[d]thiazole-6-sulfonamide], for which the half-maximal inhibitory concentration (IC50) at LCK and at CSK was 0.001 to 0.5 µM throughout. In addition, the EC50 in the experiment with Jurkat/NFAT-RE cells is 0.001 to 0.5 µM.
On to `O=c1c(-c2c(F)ccc(NS(=O)(=O)c3cc4scnc4cc3F)c2F)cc2cnc(NCCO)cc2n1C1CC1` [P-0014, N-(3-(1-cyclopropyl-7-((2-hydroxyethyl)amino)-2-oxo-1,2-dihydro-1,6-naphthyridin-3-yl)-2,4-difluorophenyl)-5-fluorobenzo[d]thiazole-6-sulfonamide], for which the values for the IC50 at LCK and at CSK were 5 to 100 µM and 0.001 to 0.5 µM, respectively. Moreover, the half-maximal effective concentration (EC50) in the experiment on Jurkat/NFAT-RE cells fell in the range of 0.5 to 5 µM.
In the same order, the values of `CC1(n2c(=O)c(-c3c(F)ccc(NS(=O)(=O)c4cc5scnc5cc4F)c3F)cc3cnc(N)cc32)CC1` [P-0006, N-(3-(7-amino-1-(1-methylcyclopropyl)-2-oxo-1,2-dihydro-1,6-naphthyridin-3-yl)-2,4-difluorophenyl)-5-fluorobenzo[d]thiazole-6-sulfonamide] are 5 to 100 µM, 0.001 to 0.5 µM and 0.5 to 5 µM.
In the same order, the values of `Nc1cc2c(cn1)cc(-c1c(F)ccc(NS(=O)(=O)c3cc4scnc4cc3F)c1F)c(=O)n2CC(F)(F)C1CC1` [P-0017, N-(3-(7-amino-1-(2-cyclopropyl-2,2-difluoroethyl)-2-oxo-1,2-dihydro-1,6-naphthyridin-3-yl)-2,4-difluorophenyl)-5-fluorobenzo[d]thiazole-6-sulfonnamide] are 5 to 100 µM, 0.001 to 0.5 µM and 0.001 to 0.5 µM.
In the same order, the values of `O=c1c(-c2c(F)ccc(NS(=O)(=O)c3cc4scnc4cc3F)c2F)cc2cnc(NCCO)cc2n1C1CC(F)(F)C1` [P-0015, N-(3-(1-(3,3-difluorocyclobutyl)-7-((2-hydroxyethyl)amino)-2-oxo-1,2-dihydro-1,6-naphthyridin-3-yl)-2,4-difluorophenyl)-5-fluorobenzo[d]thiazole-6-sulfonamide] are 5 to 100 µM, 0.5 to 5 µM and 0.5 to 5 µM.
As for `Nc1cc2c(cn1)cc(-c1c(F)ccc(NS(=O)(=O)c3ccc4ncsc4c3F)c1F)c(=O)n2C1CC1` [P-0027, N-(3-(7-amino-1-cyclopropyl-2-oxo-1,2-dihydro-1,6-naphthyridin-3-yl)-2,4-difluorophenyl)-7-fluorobenzo[d]thiazole-6-sulfonamide], on CSK, the IC50 was 0.001 to 0.5 µM. The concentration for a half-maximal effect (EC50) in the experiment with Jurkat/NFAT-RE cells is 0.001 to 0.5 µM.
On to `Nc1cc2c(cn1)cc(-c1c(F)ccc(NS(=O)(=O)c3cc4scnc4cc3F)c1F)c(=O)n2C1CC(F)(F)C1` [P-0009, N-(3-(7-amino-1-(3,3-difluorocyclobutyl)-2-oxo-1,2-dihydro-1,6-naphthyridin-3-yl)-2,4-difluorophenyl)-5-fluorobenzo[d]thiazole-6-sulfonamide], for which the IC50 on LCK was in the range of 5 to 100 µM; at CSK, 0.001 to 0.5 µM. Moreover, the EC50 in the experiment on Jurkat/NFAT-RE cells is 0.5 to 5 µM.
Regarding `Nc1cc2c(cn1)cc(-c1cccc(NS(=O)(=O)c3cc4scnc4cc3F)c1F)c(=O)n2C1CC1` [P-0029, N-(3-(7-amino-1-cyclopropyl-2-oxo-1,2-dihydro-1,6-naphthyridin-3-yl)-2-fluorophenyl)-5-fluorobenzo[d]thiazole-6-sulfonamide], the half-inhibitory concentration (IC50) at LCK was 5 to 100 µM; at CSK, 0.001 to 0.5 µM.
The matching figures for `Cc1c(-c2cccc(NS(=O)(=O)c3cc4scnc4cc3F)c2F)c(=O)n(C2CC2)c2cc(N)ncc12` [P-0028, N-(3-(7-amino-1-cyclopropyl-4-methyl-2-oxo-1,2-dihydro-1,6-naphthyridin-3-yl)-2-fluorophenyl)-5-fluorobenzo[d]thiazole-6-sulfonamide]: 5 to 100 µM and 5 to 100 µM.
